According to US20080056993A1, “Compositions, Methods and Kits Using Adenosine and Inosine in Combination for Diagnosis and Treatment” (ADENOBIO N.V., priority 2006, published 2008):
Where “and” joins values, the source holds several entries; their conditions need not be identical. Equal values may be shown once.

Assays:
male Wistar rats [1] = assay: Reperfusion injury after myocardial ischemia in the rat, repeated with 45 minute ischemia; type: in vivo; details: day 30 post ischemia, preliminary
Method: The experiment was repeated with 45 minute period of ischemia, and with the addition of a further BIDOSINE experimental group. The BIDOSINE composition for this additional group comprised adenosine, administered at 0.01 mg/kg/min ( 1/10 its single agent maximally effective dose) with inosine 0.20 mg/kg/min, for an A:I weight ratio of 1:20. Preliminary results (n=5 per group) of this ongoing study are given in Table 5, below, reporting day 30 post ischemia results.

sheep [2] = assay: Invasive cardiac hemodynamic measurements in experimental sheep model; type: in vivo
Description: An experimental sheep model, developed for invasive hemodynamic measurements under various conditions, was used to study the potentiating and synergistic effects of inosine on continuous adenosine infusion. The model is described in Tanoue et al., “Ischemic preconditioning reduces unloaded myocardial oxygen consumption in an in-vivo sheep model,” Cardiovascular Research 55: 633-641 (2002) and Xia et al., “Remote preconditioning lessens the deterioration of pulmonary function after repeated coronary artery occlusion and reperfusion,” Canadian Journal of Anesthesia 50: 481-488 (2003), the disclosures of which are incorporated herein by reference in their entireties. A total of twelve animals were studied. Briefly, the sheep were premedicated, anesthetized, intubated, and ventilated with positive pressure ventilation. Electrocardiogram (ECG) was continuously followed. The carotid artery was surgically denuded to place an arterial line for arterial blood pressure (ABP) measurement. Denuding of the jugular vein was performed to place a double or triple lumen central venous line for measurement of central venous pressure (CVP) and fluid and drug administration. A small left thoracotomy was made in the third or fourth intercostal space and the heart suspended in a pericardial cradle. A flow probe (transonic probe) was placed around the pulmonary artery and around the left circumflex coronary artery. A catheter was inserted in the pulmonary artery to determine pulmonary arterial pressure. In addition, 9 animals received a conductance catheter which was positioned in the left and right ventricle and preload-afterload variations were made by occlusion and/or constriction of the caval veins and/or pulmonary artery and/or aorta in order to study myocardial contractility. Regional blood flow measurements were also performed using a colored microsphere injection technique. Each animal served as its own control. The sequence of measurements was always the same: 1) under baseline conditions; 2) under adenosine; 3) 15 minutes stabilization, then new measurements under baseline conditions; 4) measurements under bidosine. From the first three animal experiments, it was determined that adenosine 200 μg/kg/min was the optimal single agent adenosine dose, i.e., the dose ensuring the highest coronary flow (adenosine max). Therefore, all further experiments compared this dose to the BIDOSINE formulation containing 100 μg/kg/min (that is, half adenosine max) adenosine+500 μg/kg/min inosine (A:I ratio of 1:5).

sheep [3] = assay: Regional myocardial blood flow by colored microsphere technique in sheep; type: in vivo; details: mean of 9 experiments, after 5 minutes of adenosine or BIDOSINE
Description: Regional blood flows, as well as potential changes in the distribution of coronary flow into different parts of the myocardium, were also studied. This was done by using a colored microsphere technique, essentially as described in Muller et al., “Developmental changes in cerebral autoregulatory capacity in the fetal sheep parietal cortex,” J Physiol. 539(Pt 3):957-67 (2002); Miller et al., “Physiological evidence for arteriovenous anastomoses in the uterine circulation of late-pregnant ewes,” Clin. Exp. Pharmacol. Physiol. 25(2):92-8 (1998); Herijgers et al., “Changes in organ perfusion after brain death in the rat and its relation to circulating catecholamines,” Transplantation 62: 330-335 (1996); and Wouters et al., “Ischemic event characteristics determine the extent of myocardial stunning in conscious dogs,” Basic Res. Cardiol. 91(2):140-6 (1996), the disclosures of which are incorporated herein by reference in their entireties. Briefly, colored microspheres were injected at baseline, and after 5 minutes of adenosine or BIDOSINE administration. At necropsy, tissue was digested and the number of colored microspheres per gram of wet weight in a tissue sample determined. By comparing these numbers with the number of microspheres in a reference sample drawn from the aorta at a predetermined rate, we could quantify the absolute flow rate to the tissue sample at the moment when the microspheres were injected. The statistical analysis was performed by the same methodology as for the hemodynamic parameters. Values are expressed in ml/min/g tissue (wet weight). LV=left ventricle; RV=right ventricle; endo=endocardial half; epi=epicardial half. As in Table 2, the numbers reflect the sequence of experimental conditions, as follows: 1) under baseline conditions; 2) under adenosine; 3) 15 minutes stabilization, then new measurements under baseline conditions; 4) measurements under bidosine.

human patients = details: cited from earlier work
male Wistar rats [4] = assay: Reperfusion injury after left myocardial ischemia (35 min LAD occlusion) in the rat, echocardiography; type: in vivo; parameters: EDV (end-diastolic volume), single animals / ESV (end-systolic volume), single animals / EDV (end-diastolic volume), group mean (unlabelled last line of group) / ESV (end-systolic volume), group mean (unlabelled last line of group): unit not given here; details: for EDV (end-diastolic volume), single animals / EF (ejection fraction), single animals / ESV (end-systolic volume), single animals: 60 min i.v. infusion after 35 min occlusion
[5] = Maximal solubility in nonpyrogenic fluid suitable for parenteral infusion; type: physicochemical; details: adenosine and inosine combined in a nonpyrogenic fluid suitable for parenteral infusion
Method: Combined in a nonpyrogenic, fluid suitable for parenteral infusion, maximal adenosine solubility is about 4 mg/ml and that of inosine 20 mg/ml. Concentrations approaching one or both of these maxima are convenient for unit dosage forms intended for long infusion times, since high concentrations of the nucleoside actives reduce the volume required to be infused. Typical embodiments include, for example, 250 ml containers (vials, etc.) containing 1,000 mg of adenosine with 100 mg, 1,000 mg, 2,000 mg, or even 3,000 mg, 4,000 mg, 5,000 mg, even 6,000 mg of inosine, with intermediate inosine amounts permissible.

[6] = cited from earlier work
anaesthetized rats = assay: Carotid blood flow (CaBF) in anaesthetized rats, continuous i.v. infusion; type: in vivo, rat; details: for increase in CaBF, percentage variation from baseline: 6 min continuous i.v. infusion, adenosine 0.05 mg/kg/min, inosine 0.2 mg/kg/min, alone or combined (A:I 1:4), Mean±SEM, n=6; for effect of inosine alone on CaBF: 5 min i.v. infusion
Method: The study was conducted on 7 week old male Wistar rats weighing 250-300 g. Rats were anaesthetized with Inactin 100 mg/kg i.p. Inactin was preferred to other anaesthetics because of its moderate impact on blood pressure. Heparin-filled (100 IU/ml in saline) catheters were introduced into the left common carotid artery and into the left jugular vein for measurement of blood pressure and drug administration respectively. A flow probe was inserted around the right carotid artery for measurement of carotid blood flow (CaBF).
In a first series of experiments, adenosine was administered as a single agent to identify the dose providing maximal increase in carotid arterial blood flow (“adenosine max”). In this experiment, various concentrations of adenosine were infused continuously through the jugular vein catheter for 5 minutes, with concurrent measurement of carotid arterial blood flow.
A second series of experiments was performed to assess whether inosine could potentiate the effects on CaBF of a continuous intravenous infusion of adenosine at half adenosine max.
In each experiment, the effect on CaBF of (i) adenosine as a single agent, infused continuously for five minutes at adenosine max (0.1 mg/kg/min), (ii) adenosine as single agent infused continuously for five minutes at half adenosine max (0.05 mg/kg/min), and (iii) a composition containing a fixed dose of adenosine at half adenosine max (0.05 mg/kg/min) combined with inosine infused continuously for five minutes, was assessed. In separate experiments, inosine was included in the combined (“BIDOSINE”) composition in amounts required to achieve infusion at 0.1 mg/kg/min (A:I weight ratio of 1:2, FIG. 2A), 0.15 mg/kg/min (A:I weight ratio of 1:3, FIG. 2B), 0.2 mg/kg/min (A:I weight ratio of 1:4, FIG. 2C), and 0.25 mg/kg/min (A:I weight ratio of 1:5, FIG. 2D).

[7] = tested on: rat model of spinal cord ischemia; assay: Photothrombotic model of spinal cord ischemia in rats, behavioral studies; type: in vivo
Method: BIDOSINE administration was compared to adenosine (0.1 mg/kg/min), administered by continuous i.v. infusion from thirty to sixty minutes after the injury (n=13 in each group). As controls, a group of animals (n=11) received a 60-min IV perfusion of saline solution starting 30 min after the injury. The potential neuroprotective effect of the compound was evaluated by performing various behavioral studies. In these experiments, the photothrombotic model of ischemia was chosen over the occlusion model (aortic clamp), since it better reproduces the pathophysiology of an ischemic insult. The photothrombotic model has the advantages of (i) causing a […] processes that more perfectly mimics the pathophysiological conditions observed in clinics, and (ii) affecting a controlled volume of nervous tissue. Moreover, the location of the lesion can be restricted to precise regions (three to four […]). The injury is created using a beam of a xenon lamp conveyed by fiberoptics on the selected vertebral site. The irradiation is performed over the translucent dorsal surface of the vertebral laminae. The green light (560 nm) induces the excitation of the previously injected dye (Rose Bengal) present in the spinal cord microvasculature. […]

[8] = adenosine 200 μg/kg/min or BIDOSINE (adenosine 100 + inosine 500 μg/kg/min)
[9] = adenosine 200 μg/kg/min or BIDOSINE (adenosine 100 + inosine 500 μg/kg/min), listed as Adenosine

Nc1ncnc2c1ncn2[C@@H]1O[C@H](CO)[C@@H](O)[C@H]1O [adenosine]
left ventricular EF (LVEF) (male Wistar rats [1]): 45% | EDV (male Wistar rats [1]; n=5 per group): 0.47 | ESV (male Wistar rats [1]; n=5 per group): 0.26 | LVEF (male Wistar rats [1]; n=5 per group): 0.45 | Cardiac output (co), mean (sheep [2]; [8]): 4943 | Central venous pressure (CVP), mean (sheep [2]; [8]): 9.4875 | Coronary flow (cf), mean (sheep [2]; [8]): 129.55 | Heart rate (HR), mean (sheep [2]; [8]): 90.6375 | Left ventricular dP/dtmax (contractility) (dpmax), mean (sheep [2]; [8]): 1077.714 | Left ventricular dP/dtmin (relaxation) (dpmin), mean (sheep [2]; [8]): worsened significantly more | Mean arterial blood pressure (ABPm), mean (sheep [2]; [8]): decreased significantly more | Mean pulmonary arterial pressure (pupm), mean (sheep [2]; [8]): 16.425 | Systolic left ventricular pressure (LVPsys), mean (sheep [2]; [8]): decreased significantly more | Left ventricular dP/dtmin (relaxation) (dpmin), mean (sheep [2]; [9]): −821.286 | Mean arterial blood pressure (ABPm), mean (sheep [2]; [9]): 43.2625 | Systolic left ventricular pressure (LVPsys), mean (sheep [2]; [9]): 59.35 | left ventricular relaxation constant (Tau) compared with baseline (sheep [2]; adenosine at adenosine max or BIDOSINE A:I 1:5, ANOVA p=0.001): significantly shorter | coronary blood flow (sheep [2]; continuous i.v. infusion, adenosine 200 μg/kg/min or BIDOSINE (100 + 500 μg/kg/min)): 129.5 cms/sec | optimal single agent adenosine dose, ensuring the highest coronary flow (adenosine max) (sheep [2]; from the first three animal experiments): 200 µg/kg/min | Regional blood flow, left ventricle endocardial half (Lvendo), mean (sheep [3]): 1.763 ml/min/g tissue (wet weight) | Regional blood flow, left ventricle epicardial half (Lvepi), mean (sheep [3]): 2.039 ml/min/g tissue (wet weight) | Regional blood flow, right ventricle endocardial half (RVendo), mean (sheep [3]): 2.227 ml/min/g tissue (wet weight) | Regional blood flow, right ventricle epicardial half (RVepi), mean (sheep [3]): 1.728 ml/min/g tissue (wet weight) | Regional blood flow, left ventricle endocardial half (Lvendo), mean (sheep [3]; listed as Adenosine): 1.764 ml/min/g tissue (wet weight) | side effects (human patients; continuous intravenous infusion 140 μg/kg/min for 6 minutes): frequent side effects | adverse reactions (human patients; dosage of 70 μg/kg/min or less): very few and of mild intensity | EDV (end-diastolic volume), group mean (unlabelled last line of group) (male Wistar rats [4]; Post-operative day 2): 0.40 | EF (ejection fraction), group mean (unlabelled last line of group) (male Wistar rats [4]; Post-operative day 2): 0.60 | ESV (end-systolic volume), group mean (unlabelled last line of group) (male Wistar rats [4]; Post-operative day 2): 0.16 | EDV (end-diastolic volume), single animals (male Wistar rats [4]; Post-operative day 2): 0.41 and 0.35 and 0.37 and 0.48 | EF (ejection fraction), single animals (male Wistar rats [4]; Post-operative day 2): 0.67 and 0.64 and 0.60 and 0.49 | ESV (end-systolic volume), single animals (male Wistar rats [4]; Post-operative day 2): 0.14 and 0.13 and 0.15 and 0.24 | EDV (end-diastolic volume), group mean (unlabelled last line of group) (male Wistar rats [4]; Post-operative day 30): 0.38 | EF (ejection fraction), group mean (unlabelled last line of group) (male Wistar rats [4]; Post-operative day 30): 0.59 | ESV (end-systolic volume), group mean (unlabelled last line of group) (male Wistar rats [4]; Post-operative day 30): 0.20 | EDV (end-diastolic volume), single animals (male Wistar rats [4]; Post-operative day 30): 0.44 and 0.42 and 0.33 and 0.36 | EF (ejection fraction), single animals (male Wistar rats [4]; Post-operative day 30): 0.61 and 0.32 and 0.65 and 0.44 | ESV (end-systolic volume), single animals (male Wistar rats [4]; Post-operative day 30): 0.17 and 0.29 and 0.12 and 0.20 | ejection fraction (male Wistar rats [4]; day 30, adenosine 0.1 mg/kg/min or adenosine 0.05 + inosine 0.25 mg/kg/min): 59% | solubility [5]: ~4 mg/mL | half life [6]: several seconds | adenosine dose providing maximal CaBF as a single agent (adenosine max) (anaesthetized rats; 5 min continuous i.v. infusion, 0.01-1 mg/kg/min tested): 0.1 mg/kg/min | increase in CaBF, percentage variation from baseline (anaesthetized rats): 7±4% | behavioral recovery (motor, sensory and reflex scores), all tested functions ([7]; BIDOSINE 1:5 (adenosine 0.05 + inosine 0.25 mg/kg/min) or adenosine 0.1 mg/kg/min i.v. after injury, follow-up to day 10): best efficacy until day 4 | gross and fine motor functional outcomes (open field, inclined plane, grid navigation) ([7]; compared to saline controls, to day 10, two way ANOVA p<0.001): Statistically significant improvements over control

OC[C@H]1O[C@@H](n2cnc3c(O)ncnc32)[C@H](O)[C@@H]1O [inosine]
solubility [5]: 20 mg/mL | increase in CaBF, percentage variation from baseline (anaesthetized rats): 4±2% | effect of inosine alone on CaBF (anaesthetized rats; inosine 0.3 mg/kg/min): No response | effect of inosine alone on CaBF (anaesthetized rats; inosine 1 mg/kg/min (10 times adenosine max)): Modest decreases in CaBF | effect of inosine alone on CaBF (anaesthetized rats; inosine between 1 to 10 mg/kg/min): sharp slump and dose-dependent decrease in CaBF
